Source: patent US11632953B2, “Method for controlling hematophagous or sap-feeding arthropods” (Board of Supervisors of Louisiana State University and …, priority 2016, dated 2023)

What was measured:
An. gambiae [1] = assay: topical toxicity bioassay in adult female An. gambiae; format: in vivo, Anopheles gambiae; conditions: for ED50 (95% confidence limits), Akron Strain / ED50 (95% confidence limits), G3 Strain: topical, synergists 500 ng/insect four hours prior
Method: Topical toxicity bioassays were performed on non-blood-fed adult female mosquitoes. The mosquitoes were chilled on ice for 1-3 minutes, during which 200 nL of compound (dissolved in 95% ethanol) was applied onto the abdomen of each insect with a handheld Hamilton® micro-applicator. […] […] The three resulting ED50 values were averaged. An ethanol-only treatment was included in each experiment as a negative control. Treated mosquitoes were transferred to small cages with access to 10% sucrose and held under rearing conditions for 24 h. Mortality was recorded at 24 h.

An. gambiae [2] = assay: blood meal processing, abdominal diameter; format: in vivo, Anopheles gambiae; conditions: topical, ED30 dose of VU041 after engorgement
Method: Blood meal processing studies were performed with similar methods, with the exception that An. gambiae were blood-fed on anesthetized mice. All methods were carried out in accordance with Vanderbilt Institutional Animal Care and Use Committee approval. Upon completion of blood feeding, female mosquitoes with fully distended abdomens were selected, and 200 nL of compound at a non-lethal concentration (1 μg/mg) was applied directly to the abdomen. Any mosquito that died during the 24 h observation period was excluded from the analysis. Images of the abdomens were acquired at 0, 2, 5, 8, and 24 h through the dorsal cuticle; abdomens were measured at the widest point. Images were captured using bright-field illumination on a Nikon 90i light microscope (Nikon Corp., Tokyo, Japan) connected to a Photometrics CoolSNAP HQ2 high-sensitivity monochrome CCD camera (Roper Scientific, Ottobrunn, Germany). Digital images were acquired using Nikon Advanced Research NIS-Elements software. Mean abdominal diameters were compared using one-way ANOVA with a Tukey's post-hoc analysis (Prism 6, Graphpad Software, La Jolla, Calif.).

AnKir1 = AnKir1 (Anopheles gambiae, UniProt A0A075M2J8); assay: whole-cell patch clamp electrophysiology; format: cell-based
Sequence of AnKir1 (A0A075M2J8 1-555): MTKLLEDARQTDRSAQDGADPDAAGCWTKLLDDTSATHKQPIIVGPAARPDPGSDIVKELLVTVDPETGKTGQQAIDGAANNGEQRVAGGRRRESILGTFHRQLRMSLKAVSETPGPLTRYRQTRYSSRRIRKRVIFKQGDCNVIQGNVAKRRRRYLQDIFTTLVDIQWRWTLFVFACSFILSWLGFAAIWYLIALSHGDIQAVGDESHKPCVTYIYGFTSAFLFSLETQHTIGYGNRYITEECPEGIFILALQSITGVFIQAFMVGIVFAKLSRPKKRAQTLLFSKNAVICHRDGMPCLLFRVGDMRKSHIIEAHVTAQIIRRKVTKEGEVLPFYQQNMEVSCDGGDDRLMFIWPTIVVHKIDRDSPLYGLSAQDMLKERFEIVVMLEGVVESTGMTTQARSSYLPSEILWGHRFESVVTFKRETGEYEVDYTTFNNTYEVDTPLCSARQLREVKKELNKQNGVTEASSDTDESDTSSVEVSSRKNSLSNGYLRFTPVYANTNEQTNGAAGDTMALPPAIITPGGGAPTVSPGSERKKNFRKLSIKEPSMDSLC
Method: Patch electrodes were pulled from silanized 1.5 mm outer diameter borosilicate microhematocrit tubes using a P-1000 Flaming/Brown micropipette puller (Sutter Instrument, Novato Calif., USA). Electrode resistance ranged from 2-4 MΩ. Whole-cell currents were recorded under voltage-clamp conditions using an Axopatch 200B amplifier (Molecular Devices, Sunnyvale, Calif.). Electrical connections to the amplifier used Ag/AgCl wires and 3 M KCl/agar bridges. Electrophysiological data were collected at 5 kHz and filtered at 1 kHz. Data acquisition and analysis were performed using pClamp 9.2 software (Axon Instruments).
Transiently transfected HEK-293T cells expressing AnKir1 were voltage-clamped in the whole-cell configuration of the patch clamp technique. The extracellular bath solution contained (in mM): 135 NaCl, 5 KCl, 2 CaCl2), 1 MgCl2, 5 glucose, 10 HEPES free acid, pH 7.4, 290 mOsm/kg H2O. The pipette solution contained (in mM): 135 KCl, 2 MgCl2, 1 EGTA, 10 HEPES free acid, 2 Na2ATP (Roche, Indianapolis, Ind.), pH 7.3, 275 mOsm. Cells were voltage clamped at −75 mV, stepped to −120 mV for 200 msec, and then ramped to 120 mV at a rate of 2.4 mV/msec. Concentration-response curves (CRCs) were constructed by measuring the effects of increasing doses of inhibitors on AnKir1 currents at −120 mV. All recordings were made at room temperature (20-23° C.).

Ae. aegypti = assay: topical toxicity bioassay in adult female Ae. aegypti; format: in vivo, Aedes aegypti; conditions: 24 h
Method: Topical toxicity bioassays in adult female Ae. aegypti (LVP and PR strains) were performed. […] A solvent-only treatment was included in each experiment as a negative control. Treated mosquitoes were transferred to small cages with access to 10% sucrose and held under rearing conditions for 24 h. The efficacy of a dose was measured as the percentage of treated mosquitoes in a cage that were flightless or dead at 24 h. Four to eight replicates of 10 mosquitoes were performed per dose. The ED50 values were determined using a non-linear curve fit analysis (log [inhibitor] vs. response variable-slope) in Prism 6 (Graphpad Software).
Six replicate experiments of 10 mosquitoes each were performed.

Drosophila melanogaster = assay: whole plant or invertebrate; conditions: for mortality in CAFE assay: 200 μM VU041, 700 μM VU937; for reduction of total volume of sucrose solution ingested: 100 μM fluphenazine, 200 μM VU041
Method: A capillary feeding assay (CAFE) was used to quantify the volume of sucrose solution consumed over a period of time; it was performed essentially as described in W. W. Ja, G. B. Carvalho, E. M. Mak, N. N. de la Rosa, A. Y. Fang, J. C. Liong, T. Brummel, S. Benzer, Prandiology of Drosophila and the CAFE assay. Proceedings of the National Academy of Sciences of the United States of America 104, 8253-8256 (2007); published online EpubMay 15 (10.1073/pnas.0702726104). […] One adult fly was placed into a 2 mL glass vial with a screw lid that was pierced with a glass microcapillary tube having a truncated 200-0 pipette tip. The microcapillary tubes contained 5% (wt/vol) sucrose solution with a 5 μl mineral oil overlay to minimize evaporation. […] Concentrations of 100 μM dopamine and 100 μM fluphenazine were used to determine the influence of those agents on fly feeding. […] All dead flies were excluded from all time points of the study regardless of the time of death. Mean (n>25) values are shown in all figure panels, depicting total consumption.
Times spent feeding in Kir1 and GFP genetic knockdown studies were compared to control values for each day using one-way ANOVA with a Dunns multiple comparisons post-test. Statistical significance for all studies was P<0.05.

[3] = whole-cell patch clamp, HEK-293T cells

Structure (SMILES)	topical toxicity (An. gambiae [1]; adult females, 24 h)	ED50 (95% confidence limits), Akron Strain (An. gambiae [1]; 24 h, Akron strain)	ED50 (95% confidence limits), G3 Strain (An. gambiae [1]; 24 h, G3 strain)	abdominal diameter over 24 h after blood feeding (An. gambiae [2])	activity less than VU041 (AnKir1; patch clamp)	IC50 (AnKir1; whole-cell patch clamp)	IC50 (AnKir1; [3])	topical toxicity (Ae. aegypti; adult females)	mortality in CAFE assay (Drosophila melanogaster)	enhancement of toxicity by inhibition of CYP450s in the AKRON strain over the G3 strain (An. gambiae [1]; Akron strain)	enhancement of efficacy by PBO pretreatment (An. gambiae [1]; G3 strain)	enhancement of toxicity by DEF pre-treatment (An. gambiae [1]; G3 strain)	Hill coefficient value (AnKir1; whole-cell patch clamp)	approximate ED50 (Ae. aegypti; topical, LVP strain)	reduction of total volume of sucrose solution ingested (Drosophila melanogaster; 1 day PE)	reduction of total volume of sucrose solution ingested (Drosophila melanogaster; 2 days PE)	reduction of total volume of sucrose solution ingested (Drosophila melanogaster; 3 days PE)	reduction of total volume of sucrose solution ingested (Drosophila melanogaster; 4 days PE)	EC50 (Drosophila melanogaster; Drosophila melanogaster, 96 h, read-out: EC50 of reduction of sucrose consumption)	maximal reduction of volume of sucrose consumption (Drosophila melanogaster; concentration-dependent)
O=C(Cn1nc(C(F)(F)F)c2c1CCCC2)NC1CCC1 [VU937]	not toxic	>10 µg/mg	>10 µg/mg	decreased significantly over 24 h	60 fold	29.7 µM	29.7 µM	not toxic	less than 10%											
O=C(Cn1nc(C(F)(F)F)c2c1CCCC2)N1CCCc2ccccc21 [VU041, 1-(3,4-dihydroquinolin-1(2H)-yl)-2-(3-(trifluoromethyl)-4,5,6,7-tetrahydro-1H-indazol-1-yl)ethan-1-one]		2.8 (2.1-4.1) A μg/mg	1.8 (0.9-3.1) A μg/mg	did not thereafter change much			0.496 µM		approximately 30%	3 fold	~3 fold	did not enhance toxicity	1.3	~3.24 μg/mg mosquito	2.6 fold	2.7 fold	2.9 fold	3.2 fold	68 µM	up to 3.2 fold
